# Reference: PubChem BioAssay AID1259407 (Chemical Carcinogenesis Research Information System (CCRIS), 2018)
# The source made the active and inactive calls. No rule for the calls is given here. Where a SMILES comes first, the peptide text is derived from it.
# Test system: CCRIS mutagenicity, Ames/micronucleus/aberration tests
# Experiment: CCRIS mutagenicity studies
# [1] = Test System: AMES SALMONELLA TYPHIMURIUM, Strain/Indicator: TA98, Metabolic Activation: NONE, Method: STANDARD PLATE
# [2] = Test System: AMES SALMONELLA TYPHIMURIUM, Strain/Indicator: TA100, Metabolic Activation: NONE, Method: STANDARD PLATE
# [3] = Test System: AMES SALMONELLA TYPHIMURIUM, Strain/Indicator: TA1535, Metabolic Activation: NONE, Method: STANDARD PLATE
# [4] = Test System: AMES SALMONELLA TYPHIMURIUM, Strain/Indicator: TA100, Metabolic Activation: RAT, LIVER, S-9, AROCLOR 1254, Method: STANDARD PLATE
compound,measurement,setting,value
COC(=O)[C@H](Cc1ccccc1)NC(=O)[C@@H](N)CC(=O)O (H-Asp-Phe-OMe),mutagenic call,"End Point: In vivo micronucleus, Test System: Bone marrow polychromatic erythrocytes, Species: Rat, Strain/Sex: F344/N, Male, Route: Oral",inactive; negative
same,mutagenic call,"End Point: In vivo micronucleus, Test System: Peripheral blood normochromatic erythrocytes, Species: Mouse, Strain/Sex: B6.129-Cdkn2atm1Rdp (N2) Cdkn2a deficient/Female, Route: Oral",inactive; negative
same,mutagenic call,"End Point: In vivo micronucleus, Test System: Peripheral blood normochromatic erythrocytes, Species: Mouse, Strain/Sex: B6.129-Cdkn2atm1Rdp (N2) Cdkn2a deficient/Male, Route: Oral",inactive; negative
same,mutagenic call,"End Point: In vivo micronucleus, Test System: Peripheral blood normochromatic erythrocytes, Species: Mouse, Strain/Sex: B6.129-Trp53tm1Brd (N5) p53 Haploinsufficient/Female, Route: Oral",active; positive (significant trend test and significant (p=0.0004) increase in frequenc
same,mutagenic call,"End Point: In vivo micronucleus, Test System: Peripheral blood normochromatic erythrocytes, Species: Mouse, Strain/Sex: B6.129-Trp53tm1Brd (N5) p53 Haploinsufficient/Male, Route: Oral",inactive; negative
same,mutagenic call,"End Point: In vivo micronucleus, Test System: Peripheral blood normochromatic erythrocytes, Species: Mouse, Strain/Sex: FVB Tg.Ac hemizygous/Female, Route: Oral",inactive; negative
same,mutagenic call,"End Point: In vivo micronucleus, Test System: Peripheral blood normochromatic erythrocytes, Species: Mouse, Strain/Sex: FVB Tg.Ac hemizygous/Male, Route: Oral",inactive; negative
same,mutagenic call,"Test System: Ames Salmonella typhimurium, Strain/Indicator: TA97, Metabolic Activation: Hamster, liver, S-9, Aroclor 1254, 10 and 30%, Method: Preincubation",inactive; negative
same,mutagenic call,"Test System: Ames Salmonella typhimurium, Strain/Indicator: TA97, Metabolic Activation: None, Method: Preincubation",inactive; negative
same,mutagenic call,"Test System: Ames Salmonella typhimurium, Strain/Indicator: TA97, Metabolic Activation: Rat, liver, S-9, Aroclor 1254 (10% or 30%), Method: Preincubation",active; positive in two trials with 30% s-9
same,mutagenic call,"Test System: Ames Salmonella typhimurium, Strain/Indicator: TA98, Metabolic Activation: Hamster, liver, S-9, Aroclor 1254, 10 and 30%, Method: Preincubation",inactive; negative
same,mutagenic call,"Test System: Ames Salmonella typhimurium, Strain/Indicator: TA98, Metabolic Activation: None, Method: Preincubation",inactive; negative
same,mutagenic call,"Test System: Ames Salmonella typhimurium, Strain/Indicator: TA98, Metabolic Activation: Rat, liver, S-9, Aroclor 1254, 10 and 30%, Method: Preincubation",inactive; negative
same,mutagenic call,"Test System: Ames Salmonella typhimurium, Strain/Indicator: TA100, Metabolic Activation: Hamster, liver, S-9, Aroclor 1254, 10 and 30%, Method: Preincubation",inactive; negative
same,mutagenic call,"Test System: Ames Salmonella typhimurium, Strain/Indicator: TA100, Metabolic Activation: None, Method: Preincubation",inactive; negative
same,mutagenic call,"Test System: Ames Salmonella typhimurium, Strain/Indicator: TA100, Metabolic Activation: Rat, liver, S-9, Aroclor 1254, 10 and 30%, Method: Preincubation",inactive; negative
same,mutagenic call,"Test System: Ames Salmonella typhimurium, Strain/Indicator: TA1535, Metabolic Activation: Hamster, Liver, S-9, Aroclor 1254, 10 and 30%, Method: Preincubation",inactive; negative
same,mutagenic call,"Test System: Ames Salmonella typhimurium, Strain/Indicator: TA1535, Metabolic Activation: None, Method: Preincubation",inactive; negative
same,mutagenic call,"Test System: Ames Salmonella typhimurium, Strain/Indicator: TA1535, Metabolic Activation: Rat, liver, S-9, Aroclor 1254, 10 and 30%, Method: Preincubation",inactive; negative
same,mutagenic call,"Test System: Ames Salmonella typhimurium, Strain/Indicator: TA1537, Metabolic Activation: Rat, liver, S-9, Aroclor 1254, 30%, Method: Preincubation",inactive; negative
O=C(Nc1cccc(Cl)c1)c1csc([N+](=O)[O-])c1,mutagenic call,[1],active; positive
same,mutagenic call,[2],active; positive
Cc1ccc(CCC2CO2)cc1 (stereo unspecified),mutagenic call,"Test System: AMES SALMONELLA TYPHIMURIUM, Strain/Indicator: TA100, Metabolic Activation: NONE, Method: PREINCUBATION",inactive; negative
same,mutagenic call,[2],active; positive
same,mutagenic call,"Test System: AMES SALMONELLA TYPHIMURIUM, Strain/Indicator: TA1535, Metabolic Activation: NONE, Method: PREINCUBATION",inactive; negative
same,mutagenic call,[3],active; positive
C=C(C#N)C(=O)OCC,mutagenic call,[2],inactive; negative
same,mutagenic call,[4],inactive; negative
CC(=O)OC[C@]12CCC(C)=C[C@H]1O[C@@H]1[C@H](O)[C@@H](OC(C)=O)[C@@]2(C)[C@]12CO2,mutagenic call,"Test System: AMES SALMONELLA TYPHIMURIUM, Strain/Indicator: TA98, Metabolic Activation: RAT, LIVER, MICROSOMES, PHENOBARBITAL, Method: STANDARD PLATE",inactive; negative
same,mutagenic call,[2],inactive; negative
same,mutagenic call,"Test System: AMES SALMONELLA TYPHIMURIUM, Strain/Indicator: TA100, Metabolic Activation: RAT, LIVER, MICROSOMES, PHENOBARBITAL, Method: STANDARD PLATE",inactive; negative
CCN(CC)CCNC(=O)c1cc(Cl)c(N)cc1OC,mutagenic call,"Test System: CHINESE HAMSTER V-79, Strain/Indicator: V-79 (HGPRT)/6-THIOGUANINE, Metabolic Activation: NONE",active; positive
same,mutagenic call,"Test System: UDS HUMAN HEPATOCYTES, Strain/Indicator: THY INCORP, Metabolic Activation: NONE, Method: AUTORADIOGRAPHY",inactive; negative
same,mutagenic call,"Test System: UDS RAT HEPATOCYTES, Strain/Indicator: THY INCORP, Metabolic Activation: NONE, Method: AUTORADIOGRAPHY",inactive; negative
CC(C)CCCCCCOC(=O)CCCCC(=O)OCCCCCCC(C)C,mutagenic call,"Test System: AMES SALMONELLA TYPHIMURIUM, Strain/Indicator: TA98, Metabolic Activation: HAMSTER, LIVER, S-9, AROCLOR 1254, Method: STANDARD PLATE",inactive; negative
same,mutagenic call,[1],inactive; negative
same,mutagenic call,"Test System: AMES SALMONELLA TYPHIMURIUM, Strain/Indicator: TA98, Metabolic Activation: RAT, LIVER, S-9, AROCLOR 1254, Method: STANDARD PLATE",inactive; negative
same,mutagenic call,"Test System: AMES SALMONELLA TYPHIMURIUM, Strain/Indicator: TA100, Metabolic Activation: HAMSTER, LIVER, S-9, AROCLOR 1254, Method: STANDARD PLATE",inactive; negative
same,mutagenic call,[2],inactive; negative
same,mutagenic call,[4],inactive; negative
same,mutagenic call,"Test System: AMES SALMONELLA TYPHIMURIUM, Strain/Indicator: TA1535, Metabolic Activation: HAMSTER, LIVER, S-9, AROCLOR 1254, Method: STANDARD PLATE",inactive; negative
same,mutagenic call,[3],inactive; negative
same,mutagenic call,"Test System: AMES SALMONELLA TYPHIMURIUM, Strain/Indicator: TA1535, Metabolic Activation: RAT, LIVER, S-9, AROCLOR 1254, Method: STANDARD PLATE",inactive; negative
same,mutagenic call,"Test System: AMES SALMONELLA TYPHIMURIUM, Strain/Indicator: TA1537, Metabolic Activation: HAMSTER, LIVER, S-9, AROCLOR 1254, Method: STANDARD PLATE",inactive; negative
same,mutagenic call,"Test System: AMES SALMONELLA TYPHIMURIUM, Strain/Indicator: TA1537, Metabolic Activation: NONE, Method: STANDARD PLATE",inactive; negative
same,mutagenic call,"Test System: AMES SALMONELLA TYPHIMURIUM, Strain/Indicator: TA1537, Metabolic Activation: RAT, LIVER, S-9, AROCLOR 1254, Method: STANDARD PLATE",inactive; negative
same,mutagenic call,"Test System: AMES SALMONELLA TYPHIMURIUM, Strain/Indicator: TA1538, Metabolic Activation: HAMSTER, LIVER, S-9, AROCLOR 1254, Method: STANDARD PLATE",inactive; negative
same,mutagenic call,"Test System: AMES SALMONELLA TYPHIMURIUM, Strain/Indicator: TA1538, Metabolic Activation: NONE, Method: STANDARD PLATE",inactive; negative
same,mutagenic call,"Test System: AMES SALMONELLA TYPHIMURIUM, Strain/Indicator: TA1538, Metabolic Activation: RAT, LIVER, S-9, AROCLOR 1254, Method: STANDARD PLATE",inactive; negative
same,mutagenic call,"Test System: MOUSE LYMPHOMA, Strain/Indicator: L5178Y (TK+/TK-), Metabolic Activation: NONE, Method: SUSPENSION/PLATE",inactive; negative
same,mutagenic call,"Test System: MOUSE LYMPHOMA, Strain/Indicator: L5178Y (TK+/TK-), Metabolic Activation: RAT, LIVER, S-9, AROCLOR 1254, Method: SUSPENSION/PLATE",inactive; negative
